# Results: paper PMC6091245, “Genome-Wide Identification and Expression Analysis of Cutinase Gene Family in Rhizoctonia cerealis and Functional Study of an Active Cutinase RcCUT1 in the Fungal–Wheat Interaction” (Frontiers in Microbiology, 2018)
# Target: T1, RcCUT1 (MBP-RcCUT1) (Ceratobasidium cereale, UniProt A0A346Q044)
# T1 construct: E. coli BL21 (DE3); amylose resin; about 63 kDa on SDS-PAGE
# Assay: spectrophotometric p-nitrophenol release at […] nm
# Type: biochemical
# Details: 1 mM substrate; 20 mM Tris-HCl, 10 mM NaCl, 50 mM sodium taurodeoxycholate, pH 8.0, 20 °C; MBP-tag alone inactive
# T1 sequence (A0A346Q044 entry or part of it): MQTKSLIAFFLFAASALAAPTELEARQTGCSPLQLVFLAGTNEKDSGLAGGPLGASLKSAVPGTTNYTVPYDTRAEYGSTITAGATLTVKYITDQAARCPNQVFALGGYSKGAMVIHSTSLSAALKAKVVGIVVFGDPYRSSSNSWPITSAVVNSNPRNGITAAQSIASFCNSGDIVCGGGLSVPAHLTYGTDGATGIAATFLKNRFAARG
smiles,measurement,value
CCCC(=O)Oc1ccc([N+](=O)[O-])cc1 [p-nitrophenyl butyrate],spectrophotometric p-nitrophenol release at 405 nm,the purified MBP-RcCUT1 had the enzymatic activity for hydrolyzing pNPB substrate
